Measured values published in patent US9943482B2, “Milk-derived microvesicle compositions and related methods” (UNIVERSITY OF LOUISVILLE RESEARCH FOUNDATION, INC., priority 2013, dated 2018).
Where two headings read alike, the source gives them in different places.

Columns and labels:
[1] = In vitro release from loaded exosomes, dialysis tubes against buffer with Tween-80 at 37° C.; assay type: physicochemical
Protocol: (§1) Several procedures were developed to load therapeutic agents onto the milk- or colostrum-derived exosomes. […] In one preferred embodiment, incubation of exosomes in PBS with test agents in the presence of 10% ethanol or 10% ethanol:acetonitrile (1:1) allowed for increased loading of therapeutic agents into the exosomes. The agents utilized in those studies included curcumin, withaferin A, demethoxycurcumin, delphinidin, cyanidin, a native mixture of (five) anthocyanidins from bilberry, punicalagin, and tanshinone II. The chemotherapeutic agents doxorubicin, paclitaxel, and docetaxel were also loaded in the exosomes. In this regard, it was observed that the exosomes accepted both hydrophobic (paclitaxel, docetaxel, curcumin, withaferin A, tanshinone II) and hydrophilic agents (berry anthocyanidins, punicalagin) with a loading efficiency of 4% to 65% with respect to exosomal proteins, as determined by measurement of the drug and exosomal protein contents (Tables IV and V). Sucrose density gradient ultracentrifugation confirmed the presence of drugs embedded in the exosomes (FIGS. 5-8). When tested for in vitro release using dialysis tubes against buffer containing the surfactant, Tween-80 [47] at 37° C., PAC and WFA were released time-dependently—20%, 43% and 70% PAC in 2, 6 and 19 h, and 12%, 40% and 58% WFA in 1, 4, and 24 h, respectively (FIGS. 10, 11A, and 11B).

[2] = Loading of therapeutic agents into bovine milk-derived exosomes; assay type: physicochemical
Protocol: as §1

[3] = 3 mg chemo. drug, 30 mg exosomal protein (Sample A)
[4] = 6 mg chemo. drug, 30 mg exosomal protein (Sample B)
[5] = 9 mg chemo. drug, 30 mg exosomal protein (Sample C)
[6] = 12 mg chemo. drug, 30 mg exosomal protein (Sample D)
[7] = 18 mg chemo. drug, 30 mg exosomal protein (Sample E)

| Compound | stability of agent extracted from residual material of the release study [1] | % Drug load [2, 3] [%] | % Drug load [2, 4] [%] | % Drug load [2, 5] [%] | % Drug load [2, 6] [%] | % Drug load [2, 7] [%] | in vitro release from exosomes ([1]; 2 h) [%] | in vitro release from exosomes ([1]; 6 h) [%] | in vitro release from exosomes ([1]; 19 h) [%] | in vitro release from exosomes ([1]; 1 h) [%] | in vitro release from exosomes ([1]; 4 h) [%] | in vitro release from exosomes ([1]; 24 h) [%] | stability of agent extracted from residual material of the release study ([1]; HPLC or UV spectral analysis) | % Drug load ([2]; 5 mg agent, 50 mg exosomal protein (Sample A)) [%] | % Drug load ([2]; 10 mg agent, 50 mg exosomal protein (Sample B)) [%] | % Drug load ([2]; 20 mg agent, 50 mg exosomal protein (Sample C)) [%] | % Drug load ([2]; 25 mg agent, 50 mg exosomal protein (Sample D)) [%] |
| --- | --- | --- | --- | --- | --- | --- | --- | --- | --- | --- | --- | --- | --- | --- | --- | --- | --- |
| CC(=O)O[C@@]12CO[C@@H]1C[C@H](O)[C@@]1(C)C(=O)[C@H](O)C3=C(C)[C@@H](OC(=O)[C@H](O)[C@@H](NC(=O)OC(C)(C)C)c4ccccc4)C[C@@](O)([C@@H](OC(=O)c4ccccc4)[C@H]21)C3(C)C [Docetaxel, docetaxel] | stable during the workup | 6.0 | 17.7 | 34.5 | 49.1 | 55.1 |  |  |  |  |  |  |  |  |  |  |  |
| CC(=O)O[C@H]1C(=O)[C@@]2(C)[C@H]([C@H](OC(=O)c3ccccc3)[C@]3(O)C[C@H](OC(=O)[C@H](O)[C@@H](NC(=O)c4ccccc4)c4ccccc4)C(C)=C1C3(C)C)[C@]1(OC(C)=O)CO[C@@H]1C[C@@H]2O [Paclitaxel, paclitaxel] | stable during the workup | 15.7 | 20.3 | 14.9 | 36.6 | 64.6 | 20 | 43 | 70 |  |  |  |  |  |  |  |  |
| CC1=C(CO)C(=O)O[C@@H]([C@@H](C)[C@H]2CC[C@H]3[C@@H]4C[C@H]5O[C@]56[C@@H](O)C=CC(=O)[C@]6(C)[C@H]4CC[C@]23C)C1 [Withaferin A, withaferin A] |  |  |  |  |  |  |  |  |  | 12 | 40 | 58 | stable during the workup | 3.8 | 8.6 | 31.4 | 44.8 |
